Measured values as given in ChEMBL document CHEMBL4428125, “8-Substituted 1,3-dimethyltetrahydropyrazino[2,1-f]purinediones: Water-soluble adenosine receptor antagonists and monoamine oxidase B inhibitors” (Bioorg Med Chem, 2016).
In brackets after ≈: the same amount, converted by molar mass. Activity calls are given as the source filed them. No cut-off for these calls is given here.

Experiments:
[1] = molecular target: T1, Adenosine receptor A1 (Rattus norvegicus, UniProt P25099); assay: Displacement of [3H]CCPA from A1 receptor in rat brain cortex membranes by liquid scintillation counting method; format: cell membranes
T1 sequence (P25099 whole entry): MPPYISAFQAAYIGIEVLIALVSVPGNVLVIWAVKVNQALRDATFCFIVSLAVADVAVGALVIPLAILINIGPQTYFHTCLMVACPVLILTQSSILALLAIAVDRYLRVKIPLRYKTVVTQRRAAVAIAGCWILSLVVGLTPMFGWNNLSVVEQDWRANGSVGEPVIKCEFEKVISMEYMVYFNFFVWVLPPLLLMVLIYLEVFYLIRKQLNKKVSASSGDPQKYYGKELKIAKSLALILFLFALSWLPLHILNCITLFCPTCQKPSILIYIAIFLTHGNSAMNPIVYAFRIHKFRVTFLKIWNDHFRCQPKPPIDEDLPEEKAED

[2] = molecular target: T2, Adenosine receptor A1 (Rattus norvegicus) (UniProt P25099); assay: Displacement of [3H]CCPA from A1 receptor in rat brain cortex membranes at 1.5 uM by liquid scintillation counting method; format: cell membranes
T2 sequence (whole entry): T1 sequence (P25099 whole entry)

[3] = molecular target: Adenosine receptor A2a (Rattus norvegicus, UniProt P30543); assay: Displacement of [3H]MSX from A2A receptor in rat brain striatum membranes measured after 30 mins by liquid scintillation counting method; format: cell membranes
[4] = molecular target: Adenosine receptor A2a (Rattus norvegicus) (UniProt P30543); assay: Displacement of [3H]MSX from A2A receptor in rat brain striatum membranes at 1 uM measured after 30 mins by liquid scintillation counting method relative to control; format: cell membranes
[5] = molecular target: T3, Amine oxidase [flavin-containing] A (Homo sapiens, UniProt P21397); assay: Inhibition of recombinant human MAO-A expressed in baculovirus infected BTI insect cells preincubated for 30 mins followed by addition of p-tyramine as substrate measured over 45 mins by Amplex Red MAO assay
T3 sequence (P21397 whole entry): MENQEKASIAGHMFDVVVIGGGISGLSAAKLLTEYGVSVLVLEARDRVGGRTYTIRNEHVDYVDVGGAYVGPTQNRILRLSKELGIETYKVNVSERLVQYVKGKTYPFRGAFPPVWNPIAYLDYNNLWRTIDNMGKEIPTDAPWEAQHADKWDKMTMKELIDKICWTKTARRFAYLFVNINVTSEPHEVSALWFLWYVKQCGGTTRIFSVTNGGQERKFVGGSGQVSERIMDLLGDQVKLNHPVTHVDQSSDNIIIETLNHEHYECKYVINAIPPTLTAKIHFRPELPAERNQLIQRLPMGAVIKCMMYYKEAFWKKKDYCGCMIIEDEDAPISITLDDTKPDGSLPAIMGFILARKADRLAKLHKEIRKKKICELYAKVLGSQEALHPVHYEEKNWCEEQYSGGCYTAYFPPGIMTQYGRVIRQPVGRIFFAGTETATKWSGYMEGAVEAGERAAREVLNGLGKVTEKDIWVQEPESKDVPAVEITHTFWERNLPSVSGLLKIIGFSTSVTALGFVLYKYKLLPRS

[6] = molecular target: T3, Amine oxidase [flavin-containing] A; assay: Inhibition of recombinant human MAO-A expressed in baculovirus infected BTI insect cells at 10 uM preincubated for 30 mins followed by addition of p-tyramine as substrate measured over 45 mins by Amplex Red MAO assay relative to control; settings: 0.75 h
[7] = molecular target: T4, Amine oxidase [flavin-containing] B (Homo sapiens, UniProt P27338); assay: Inhibition of recombinant human MAO-B expressed in baculovirus infected BTI insect cells preincubated for 30 mins followed by addition of p-tyramine as substrate measured over 45 mins by Amplex Red MAO assay
T4 sequence (P27338 whole entry): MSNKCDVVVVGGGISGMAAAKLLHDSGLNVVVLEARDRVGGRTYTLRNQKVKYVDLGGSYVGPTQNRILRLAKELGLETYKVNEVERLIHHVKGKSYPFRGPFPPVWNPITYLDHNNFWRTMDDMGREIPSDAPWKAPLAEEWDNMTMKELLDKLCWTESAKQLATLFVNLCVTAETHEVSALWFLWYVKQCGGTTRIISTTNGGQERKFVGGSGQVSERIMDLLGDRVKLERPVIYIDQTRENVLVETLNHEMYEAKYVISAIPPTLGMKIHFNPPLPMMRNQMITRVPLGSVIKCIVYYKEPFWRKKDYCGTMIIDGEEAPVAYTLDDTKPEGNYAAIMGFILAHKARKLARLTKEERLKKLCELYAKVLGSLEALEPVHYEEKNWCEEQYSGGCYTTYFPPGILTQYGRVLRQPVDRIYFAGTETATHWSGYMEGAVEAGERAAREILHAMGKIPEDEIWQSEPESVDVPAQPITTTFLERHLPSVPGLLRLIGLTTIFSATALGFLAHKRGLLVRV

[8] = molecular target: T4, Amine oxidase [flavin-containing] B; assay: Inhibition of recombinant human MAO-B expressed in baculovirus infected BTI insect cells at 10 uM preincubated for 30 mins followed by addition of p-tyramine as substrate measured over 45 mins by Amplex Red MAO assay relative to control; settings: 0.75 h
[9] = molecular target: T5, Adenosine receptor A2b (Homo sapiens, UniProt P29275); assay: Displacement of [3H]PSB-603 from human A2B receptor expressed in CHO cell membrane; format: cell membranes
T5 sequence (P29275 whole entry): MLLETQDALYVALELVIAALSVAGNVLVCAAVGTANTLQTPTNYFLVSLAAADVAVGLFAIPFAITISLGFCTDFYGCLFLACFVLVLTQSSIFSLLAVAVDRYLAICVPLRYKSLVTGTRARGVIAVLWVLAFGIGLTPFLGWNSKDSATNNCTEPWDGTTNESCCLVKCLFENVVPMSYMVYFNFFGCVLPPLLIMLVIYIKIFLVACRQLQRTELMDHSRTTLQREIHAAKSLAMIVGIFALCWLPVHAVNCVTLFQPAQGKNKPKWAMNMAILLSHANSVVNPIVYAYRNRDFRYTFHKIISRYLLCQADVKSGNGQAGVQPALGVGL

[10] = molecular target: T6, Adenosine receptor A2b (Homo sapiens) (UniProt P29275); assay: Displacement of [3H]PSB-603 from human A2B receptor expressed in CHO cell membrane at 1 uM relative to control; format: cell membranes
T6 sequence (whole entry): T5 sequence (P29275 whole entry)

[11] = molecular target: T7, Adenosine receptor A3 (Homo sapiens, UniProt P0DMS8); assay: Displacement of [3H]PSB-11 from human A3 receptor expressed in CHO cell membrane by liquid scintillation counting method relative to control; format: cell membranes
T7 sequence (P0DMS8 whole entry): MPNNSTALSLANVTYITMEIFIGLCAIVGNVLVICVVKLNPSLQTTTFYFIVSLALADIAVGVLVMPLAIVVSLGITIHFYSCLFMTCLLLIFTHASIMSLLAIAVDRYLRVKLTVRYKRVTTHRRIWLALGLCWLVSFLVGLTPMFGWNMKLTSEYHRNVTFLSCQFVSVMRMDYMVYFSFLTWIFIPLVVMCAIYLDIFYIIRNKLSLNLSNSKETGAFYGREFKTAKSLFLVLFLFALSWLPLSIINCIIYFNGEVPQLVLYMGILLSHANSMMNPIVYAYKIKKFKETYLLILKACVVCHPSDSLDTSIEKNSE

[12] = Thermodynamic solubility of the compound at pH 1; format: physicochemical; settings: buffer, read-out: Therm_solubility
[13] = Thermodynamic solubility of the compound at pH 4; format: physicochemical; settings: buffer, read-out: Therm_solubility
[14] = Thermodynamic solubility of the compound at pH 7.4; format: physicochemical; settings: buffer, read-out: Therm_solubility
[15] = molecular target: T8, Adenosine receptor A3 (Homo sapiens) (UniProt P0DMS8); assay: Displacement of [3H]PSB-11 from human A3 receptor expressed in CHO cell membrane at 3 uM by liquid scintillation counting method relative to control relative to control; format: cell membranes
T8 sequence (whole entry): T7 sequence (P0DMS8 whole entry)

[16] = molecular target: T9, Adenosine receptor A1 (Homo sapiens, UniProt P30542); assay: Displacement of [3H]CCPA from human A1 receptor expressed in CHO cell membrane by liquid scintillation counting method; format: cell membranes
T9 sequence (P30542 whole entry): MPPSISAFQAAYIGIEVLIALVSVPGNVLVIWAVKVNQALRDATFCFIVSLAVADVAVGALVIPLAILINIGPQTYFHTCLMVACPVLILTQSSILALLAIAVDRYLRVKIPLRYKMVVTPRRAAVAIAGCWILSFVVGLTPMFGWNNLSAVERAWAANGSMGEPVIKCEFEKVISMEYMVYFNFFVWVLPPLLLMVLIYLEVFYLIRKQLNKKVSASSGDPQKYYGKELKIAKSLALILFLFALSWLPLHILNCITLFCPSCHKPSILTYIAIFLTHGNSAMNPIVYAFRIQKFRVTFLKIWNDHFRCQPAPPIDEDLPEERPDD

[17] = molecular target: T10, Adenosine receptor A2a (Homo sapiens, UniProt P29274); assay: Displacement of [3H]MSX from human A2A receptor measured after 30 mins by liquid scintillation counting method
[18] = molecular target: T11, Adenosine receptor A1 (Homo sapiens) (UniProt P30542); assay: Agonist activity at recombinant human A1 receptor expressed in CHO cells assessed as inhibition of forskolin-induced cAMP accumulation at 10 uM preincubated for 20 mins prior to forskolin-stimulation measure after 5 mins by liquid scintillation counting method; format: functional, cell-based
T11 sequence (whole entry): T9 sequence (P30542 whole entry)

[19] = molecular target: T11, Adenosine receptor A1 (Homo sapiens); assay: Agonist activity at recombinant human A1 receptor expressed in CHO cells assessed as inhibition of forskolin-induced cAMP accumulation at 1 uM preincubated for 20 mins prior to forskolin-stimulation measure after 5 mins by liquid scintillation counting method; format: functional, cell-based
[20] = molecular target: T10, Adenosine receptor A2a; assay: Agonist activity at recombinant human A2A receptor expressed in CHO cells assessed as increase in forskolin-induced cAMP level at 10 uM preincubated for 20 mins prior to forskolin-stimulation measure after 5 mins by liquid scintillation counting method; format: functional, cell-based
[21] = molecular target: T10, Adenosine receptor A2a; assay: Agonist activity at recombinant human A2A receptor expressed in CHO cells assessed as increase in forskolin-induced cAMP level at 1 uM preincubated for 20 mins prior to forskolin-stimulation measure after 5 mins by liquid scintillation counting method; format: functional, cell-based
[22] = molecular target: T8, Adenosine receptor A3 (Homo sapiens); assay: Displacement of [3H]PSB-11 from human A3 receptor expressed in CHO cell membrane at 10 uM by liquid scintillation counting method relative to control relative to control; format: cell membranes
[23] = molecular target: T8, Adenosine receptor A3 (Homo sapiens); assay: Displacement of [3H]PSB-11 from human A3 receptor expressed in CHO cell membrane at 1 uM by liquid scintillation counting method relative to control relative to control; format: cell membranes
[24] = molecular target: T6, Adenosine receptor A2b (Homo sapiens); assay: Displacement of [3H]PSB-603 from human A2B receptor expressed in CHO cell membrane at 0.3 uM relative to control; format: cell membranes

T10 sequence (P29274 whole entry): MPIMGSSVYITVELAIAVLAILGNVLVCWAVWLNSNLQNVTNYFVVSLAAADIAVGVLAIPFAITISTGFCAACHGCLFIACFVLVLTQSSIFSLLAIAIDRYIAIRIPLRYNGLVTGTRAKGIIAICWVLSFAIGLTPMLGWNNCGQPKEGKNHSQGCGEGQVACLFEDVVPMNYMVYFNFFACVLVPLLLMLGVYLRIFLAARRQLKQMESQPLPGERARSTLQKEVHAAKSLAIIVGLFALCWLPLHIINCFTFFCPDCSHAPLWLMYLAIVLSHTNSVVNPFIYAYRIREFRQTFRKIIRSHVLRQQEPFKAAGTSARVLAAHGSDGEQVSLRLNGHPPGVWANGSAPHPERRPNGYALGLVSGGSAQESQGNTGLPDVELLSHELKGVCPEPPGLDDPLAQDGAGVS
Adenosine receptor A2a (Rattus norvegicus), sequence (P30543 whole entry): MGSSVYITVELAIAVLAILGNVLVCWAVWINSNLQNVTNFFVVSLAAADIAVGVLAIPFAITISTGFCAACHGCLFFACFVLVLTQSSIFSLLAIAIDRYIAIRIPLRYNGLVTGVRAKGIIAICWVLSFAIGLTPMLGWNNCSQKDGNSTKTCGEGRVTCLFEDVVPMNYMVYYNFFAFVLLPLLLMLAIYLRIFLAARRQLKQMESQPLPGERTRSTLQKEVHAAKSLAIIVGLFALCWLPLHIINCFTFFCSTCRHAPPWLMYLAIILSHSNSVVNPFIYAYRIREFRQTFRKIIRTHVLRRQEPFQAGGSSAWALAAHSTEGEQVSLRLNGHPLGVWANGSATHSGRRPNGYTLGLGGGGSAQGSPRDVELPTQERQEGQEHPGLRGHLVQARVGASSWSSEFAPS
Adenosine receptor A2a (Rattus norvegicus, UniProt P30543), sequence (P30543 whole entry): as above

SMILES	Ki [1] [nM]	Activity [2] [%]	Ki [3] [nM]	Activity [4] [%]	IC50 [5] [nM]	inhibition at 10 µM [6] [%]	IC50 [7] [nM]	inhibition at 10 µM [8] [%]	Ki [9] [nM]	Activity [10] [%]	Ki [11] [nM]	solubility thermodynamic [12] [µg/mL]	solubility thermodynamic [13] [µg/mL]	solubility thermodynamic [14] [µg/mL]	Activity [15] [%]	Ki [16] [nM]	Ki [17] [nM]	Activity [18]	Activity [19]	Activity [20]	further results
Cn1c(=O)c2c(nc3n2CCN(CCCn2cccc2)C3)n(C)c1=O	> 1500	-4	> 1000	10	> 10000	7	> 10000	27	> 1000	10	> 3000	> 1500	< 200	< 70	3						
Cn1c(=O)c2c(nc3n2CCN(Cc2csc(-c4cccs4)n2)C3)n(C)c1=O	166		121				> 10000	33	> 1000	3	≥ 10000			700 (≈ 1690 µM)		642	203	inactive	inactive	inactive	Activity [21]: inactive; Activity [22]: 46%
Cn1c(=O)c2c(nc3n2CCN(Cc2csc(-c4ccc(C(F)(F)F)cc4)n2)C3)n(C)c1=O	157		355				10000	54	> 1000	25	7490	200 (≈ 420 µM)	< 0.5	< 0.5		236	217	inactive	inactive	inactive	Activity [21]: inactive
Cn1c(=O)c2c(nc3n2CCN(c2ccc(Br)cc2)C3)n(C)c1=O	> 1500	15	3900				132		> 1000	11	> 1000										Activity [23]: 2%
COc1ccc(Br)cc1CCN1CCn2c(nc3c2c(=O)n(C)c(=O)n3C)C1	> 1500	3	> 1000	27	> 10000	34	> 10000	3	> 1000	8	> 3000	300 (≈ 669 µM)	< 0.5	< 0.5	14						
C#CCN1CCn2c(nc3c2c(=O)n(C)c(=O)n3C)C1	> 1500	13	> 1000	28			> 10000	27	> 300	10	> 10000			800 (≈ 2930 µM)	19						Activity [22]: 19%; Activity [24]: 10%
